Source: patent US9714469B2, “Composition for increasing the lipophobicity of a watch-making component” (Rolex SA, priority 2010, dated 2017)

Columns and labels:
[1] = Contact angle of water drops on coated watch-making surfaces; type: physicochemical; details: molecule alone 10^−3 M in IPA, soaking 5 min
Experimental: (§1) The epilame effect is conventionally evaluated by measuring the contact angle of the lubricants or of a test fluid (water, test liquids NSSC test) on the surface of the component.
(§2) Deposit • Place the watch part or parts in a container with an adapted shape, • Cover the part or parts with coating solution (thiol, BP or BP/thiol-PFPE mixture), • Incubate between 5 minutes and 360 minutes, • Eliminate the supernatant—remove the part, • The part is drip dried (centrifugation).
(§3) Dehydration—Rinsing • The part which received the deposit is placed in an oven at 120° C. for a period ranging from 6 to 15 h (only for rubies and silicon), • The part is brought back to room temperature then immersed in IPA under ultrasound for 2 minutes, • The part is dried under a stream of hot air.
Different surfaces were treated with solutions of thiol I.3 and BP II.1 molecules. […]
According to the epilame method described in paragraphs 3 and 5.1, the materials were treated by the mixture of the thiol molecule I.3. with the BP molecule II.1. dissolved in IPA. The contact angles were measured before and after treatment of the surface. […]
(§4) The properties of thiol and bisphosphonate molecules in isolation were measured on the surfaces of steel and gold-plated substrates using solutions at 10^−3 M and in isopropanol in accordance with the protocol described in example 3 above, with a soaking time of 5 minutes.

[2] = Contact angle of test oil on coated watch-making surfaces (epilame effect); type: physicochemical; details: for contact angle test oil: molecule alone 10^−3 M in IPA, soaking 5 min; for contact angle of the gold-plated brass part with the test oil: molecule alone at 10^−3 M, soaking 30 min
Experimental: as §1
The increased epilame effect permitted by the composition of the invention must be such that this contact angle with a watch oil is greater than 30°, preferably 35°, even more preferably 40°, as such an angle corresponds to very high epilame efficacy (see Renaud 1956, Osowiecki 1962 and Massin 1971).
as §2
as §3, with “air. […]” for “air.”
The lipophobic effect was evaluated by measuring the contact angles of a test oil having surface tension of 33 mN/m on different surfaces. […]
In accordance with the reference articles in the watch-making literature (Renaud 1956, Osowiecki 1962 and Massin 1971), an angle of over 40° with a watch lubricant corresponds to very high epilame efficacy. […]
On the basis of the kinetics of molecule I.1, the following parameters were used to test the four other thiol-PF and thiol-PFPE molecules (I.2, I.3, I.4, I.5): • Concentration: 10^−3 M for each compound I.1 to I.5 • Solvent: Isopropyl alcohol (IPA) or Biosane T212 (MMCC) • Soaking Time: 30 minutes • Rinsing time: 2 minutes under ultrasound • Drying: hot air
Evaluation of functional properties was carried out by measuring the contact angles between the surface of the watch-making component and the drop of watch-making oil. It is noticeable that the concentration of 10^−3 M gives results that comply with the desired epilame effect (angle greater than 30°) for all molecules I.1 to I.5.
as §4

| SMILES | contact angle H2O ([1]; Au (gold-plated brass)) | contact angle H2O ([1]; Steel) | ranking of contact angles among the molecules [2] | contact angle test oil ([2]; Au (gold-plated brass)) | contact angle test oil ([2]; Steel) | contact angle of the gold-plated brass part with the test oil ([2]; solvent IPA) | contact angle of the gold-plated brass part with the test oil ([2]; solvent MMCC (Biosane T212)) |
| --- | --- | --- | --- | --- | --- | --- | --- |
| O=C(NCCCCCCS)C(F)(OC(F)(F)C(F)(OC(F)(F)C(F)(OC(F)(F)C(F)(OC(F)(F)C(F)(OC(F)(F)C(F)(F)C(F)(F)F)C(F)(F)F)C(F)(F)F)C(F)(F)F)C(F)(F)F)C(F)(F)F (stereo not drawn) [I.3] | 96.4 ° | 70.2 ° | highest | 69.0 ° | 33.5 ° | 75.7 ± 6° | 63.8 ± 2.8° |
| O=C(NCCS)C(F)(F)C(F)(F)C(F)(F)C(F)(F)C(F)(F)C(F)(F)C(F)(F)F [I.5] | – | – | – | – | – | 67.6 ± 3.6° | 49.5 ± 2.5° |
